# Test results as given in patent publication US20150218534A1, “MODIFIED DNA POLYMERASE” (TOYOBO CO., LTD., priority 2012, published 2015).
# Positions count from the first letter of the chain named. Names and notes keep the numbering of the source.
# B1: KOD Y7A: modified DNA polymerase derived from Thermococcus kodakaraensis KOD1 with Y7A (protein, listed as Thermococcus kodakaraensis)
# chain: MILDTDAITEDGKPVIRIFKKENGEFKIEYDRTFEPYFYALLKDDSAIEEVKKITAERHGTVVTVKRVEKVQKKFLGRPVEVWKLYFTHPQDVPAIRDKIREHPAVIDIYEYDIPFAKRYLIDKGLVPMEGDEELKMLAFDIETLYHEGEEFAEGPILMISYADEEGARVITWKNVDLPYVDVVSTEREMIKRFLRVVKEKDPDVLITYNGDNFDFAYLKKRCEKLGINFALGRDGSEPKIQRMGDRFAVEVKGRIHFDLYPVIRRTINLPTYTLEAVYEAVFGQPKEKVYAEEITTAWETGENLERVARYSMEDAKVTYELGKEFLPMEAQLSRLIGQSLWDVSRSSTGNLVEWFLLRKAYERNELAPNKPDEKELARRRQSYEGGYVKEPERGLWENIVYLDFRSLYPSIIITHNVSPDTLNREGCKEYDVAPQVGHRFCKDFPGFIPSLLGDLLEERQKIKKKMKATIDPIERKLLDYRQRAIKILANSYYGYYGYARARWYCKECAESVTAWGREYITMTIKEIEEKYGFKVIYSDTDGFFATIPGADAETVKKKAMEFLKYINAKLPGALELEYEGFYKRGFFVTKKKYAVIDEEGKITTRGLEIVRRDWSEIAKETQARVLEALLKDGDVEKAVRIVKEVTEKLSKYEVPPEKLVIHEQITRDLKDYKATGPHVAVAKRLAARGVKIRPGTVISYIVLKGSGRIGDRAIPFDEFDPTKHKYDAEYYIENQVLPAVERILRAFGYRKEDLRYQKTRQVGLSAWLKPKGT
# B2: KOD V93R: modified KOD DNA polymerase with V93R (protein, listed as Thermococcus kodakaraensis)
# chain: B1 chain with A7Y, V93R
# B3: KOD P36R: modified KOD DNA polymerase with P36R (protein, listed as Thermococcus kodakaraensis)
# chain: B1 chain with A7Y, P36R
# B4: KOD P36H/V93K: modified KOD DNA polymerase with P36H and V93K (protein, listed as Thermococcus kodakaraensis)
# chain: B1 chain with A7Y, P36H, V93K
# B5: KOD V93Q: modified KOD DNA polymerase with V93Q (protein, listed as Thermococcus kodakaraensis)
# chain: B1 chain with A7Y, V93Q
# B6: KOD V93K: modified KOD DNA polymerase with V93K (protein, listed as Thermococcus kodakaraensis)
# chain: B1 chain with A7Y, V93K
# B7: KOD P36H: modified KOD DNA polymerase with P36H (protein, listed as Thermococcus kodakaraensis)
# chain: B1 chain with A7Y, P36H
# Columns and labels:
# [1] = tested on: 482 bp of human β-globin; assay: PCR amplification of 482 bp of human β-globin with dUTP in place of dTTP; format: biochemical; set-up: key to Results of PCR in the presence of dUTP 481 bp: A: Amplified; B: Amplified (faint band); C: Not amplified; settings: for Results of PCR in the presence of dUTP 481 bp: dTTP replaced by dUTP, 35 cycles; for PCR amplification of 482 bp with dUTP: 100% dUTP instead of dTTP (FIGS. 5 to 8)
# How it was run: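 482 bp human β-globin amplified from 10 ng human genomic DNA with 1 U enzyme premixed with KOD antibody, using 0.2 mM dNTPs with either dTTP or dUTP, 1.5 mM MgSO4, 15 pmol primers. Cycling: 94 °C 2 min, then 35 cycles of 98 °C 10 s, 68 °C 1 min; products analysed by MultiNA DNA-1000 microchip electrophoresis.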
# [2] = tested on: human genomic DNA (about 1.3 kb) with dUTP added; assay: Evaluation of uracil (dUTP) sensitivity by PCR with dUTP added to the reaction; format: biochemical; settings: for Evaluation of dUTP resisitance on a 11-point scale: closer to 0 = stronger sensitivity to dUTP, closer to 10 = lower sensitivity, summary of Examples 1 to 3; for dUTP resistance: dUTP added to 0.5, 5, 50, 100, 200 μM, about 1.3 kb, 30 cycles, 1 U enzyme; for PCR products on addition of dUTP: some amount of dUTP added
# How it was run: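 Uracil sensitivity is judged by whether a roughly 1.3 kb band still appears on ethidium bromide-stained agarose gel. Tolerated dUTP was tested at final 0.5 to 200 μM (0.5, 5, 50, 100, 200 μM), using 10 ng human genomic DNA, 1 U enzyme, 0.2 mM dNTPs and 1.5 mM MgSO4 in KOD-Plus-Ver. 2 buffer. Cycling: 94° C for 30 s, then 30 cycles of 98° C/65° C/68° C.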
Molecule,Results of PCR in the presence of dUTP 481 bp [1],Evaluation of dUTP resisitance on a 11-point scale [2],dUTP resistance [2],PCR amplification of 482 bp with dUTP [1],PCR products on addition of dUTP [2]
KOD D141A/E143A/Y7A/P36R: KOD D141A/E143A (exo(−)) mutant with Y7A and P36R,A,10,>200 µM,–,–
KOD P115Δ: modified KOD DNA polymerase lacking P115,C,0,0 µM,–,–
KOD N210D/Y7A/P115Δ: KOD N210D (exo(−)) mutant with Y7A and lacking P115,C,0,0 µM,–,–
KOD D141A/E143A/Y7A/P36H: KOD D141A/E143A (exo(−)) mutant with Y7A and P36H,A,10,>200 µM,–,–
KOD I142R/V93K: KOD I142R (exo(−)) mutant with V93K,A,8,>200 µM,–,–
KOD I142R/Y7A/P36R: KOD I142R (exo(−)) mutant with Y7A and P36R,A,8,>200 µM,–,–
KOD H147E/P36H: KOD H147E (exo(+)) mutant with P36H,A,6,>200 µM,–,–
KOD H147E/P115Δ: KOD H147E (exo(+)) mutant lacking P115,C,0,0 µM,–,–
KOD N210D/Y7A/V93K: KOD N210D (exo(−)) mutant with Y7A and V93K,A,10,>200 µM,–,–
KOD Y7A/P115Δ: modified KOD DNA polymerase with Y7A and lacking P115,C,0,0 µM,–,–
KOD Y7A/P36R: modified KOD DNA polymerase with Y7A and P36R,A,7,>200 µM,allowed for PCR amplification,–
B1,C,2,0.5 µM,not PCR-amplified,PCR products were confirmed
B2,A,5,>200 µM,–,PCR products were confirmed
B3,A,5,>200 µM,–,PCR products were confirmed
B4,A,7,>200 µM,–,–
B5,A,3,100 µM,–,PCR products were confirmed
B6,A,6,>200 µM,–,PCR products were confirmed
B7,A,5,>200 µM,–,PCR products were confirmed
